In publication doi:10.1101/2020.06.20.162875v1 (biorxiv, 2020):
Like-named read-outs stand apart in the source and are kept apart here.

Assays:
[1] = target: T1, PNA (peanut lectin, peanut agglutinin) (Arachis hypogaea, UniProt P02872); experiment: isothermal titration calorimetry; format: binding
T1 sequence (P02872 24-259): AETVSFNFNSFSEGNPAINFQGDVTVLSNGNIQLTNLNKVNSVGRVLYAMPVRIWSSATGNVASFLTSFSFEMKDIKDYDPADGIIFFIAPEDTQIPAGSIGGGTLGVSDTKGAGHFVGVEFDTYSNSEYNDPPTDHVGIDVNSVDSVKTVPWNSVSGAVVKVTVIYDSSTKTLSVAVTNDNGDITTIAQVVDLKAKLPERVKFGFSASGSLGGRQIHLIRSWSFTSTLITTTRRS

[2] = target: T1, PNA (peanut lectin, peanut agglutinin); experiment: isothermal titration calorimetry; format: binding; remark: listed apart in the source

SMILES | Kd [2] | further results
OC[C@H]1O[C@@H](O[C@H]2[C@H](O)[C@@H](O)C(O)O[C@@H]2CO)[C@H](O)[C@@H](O)[C@H]1O (some centres unmarked) [Lactose] |  | Kd ([1]; 298 K, independent single-site model, reference compound): 644 µM
CO[C@H]1O[C@H](Cn2cc(CNC(=O)CCC(=O)N[C@@H]3O[C@H](CO)[C@H](O)[C@H](O)[C@H]3O)nn2)[C@@H](O)[C@H](O)[C@H]1O [NGS] | 1620 µM | 
OC[C@H]1O[C@@H](S[C@@H]2O[C@H](CO)[C@H](O)[C@H](O)[C@H]2O)[C@H](O)[C@@H](O)[C@H]1O [TDG] |  | Kd [1]: 524 µM
O=C(CCC(=O)N[C@@H]1O[C@H](CO)[C@H](O)[C@H](O)[C@H]1O)NCc1cn([C@H]2CO[C@H]3[C@@H]2OC[C@@H]3n2cc(CNC(=O)CCC(=O)N[C@@H]3O[C@H](CO)[C@H](O)[C@H](O)[C@H]3O)nn2)nn1 [diNGS] | 698 µM | 

Continued, in another order:

Kd [2] | SMILES | further results
420 µM | CO[C@H]1O[C@H](Cn2cc(CSC[C@H]3O[C@@H](S[C@@H]4O[C@H](CO)[C@H](O)[C@H](O)[C@H]4O)[C@H](O)[C@@H](O)[C@@H]3O)nn2)[C@@H](O)[C@H](O)[C@H]1O [STGD] | 
552 µM | C#CCSC[C@H]1O[C@@H](S[C@@H]2O[C@H](CO)[C@H](O)[C@H](O)[C@H]2O)[C@H](O)[C@@H](O)[C@@H]1O [STG] | 
544 µM | O=C(NCc1cn(C2COC3C2OCC3n2cc(CNC(=O)[C@H](O)[C@@H](O)C(=O)N[C@@H]3O[C@H](CO)[C@H](O)[C@H](O)[C@H]3O)nn2)nn1)[C@H](O)[C@@H](O)C(=O)N[C@@H]1O[C@H](CO)[C@H](O)[C@H](O)[C@H]1O (some centres unmarked) [diNGT] | 
161 µM | OC[C@H]1O[C@@H](S[C@@H]2O[C@H](CSCc3cn(C[C@H]4O[C@H](O[C@H]5O[C@H](Cn6cc(CSC[C@H]7O[C@@H](S[C@@H]8O[C@H](CO)[C@H](O)[C@H](O)[C@H]8O)[C@H](O)[C@@H](O)[C@@H]7O)nn6)[C@@H](O)[C@H](O)[C@H]5O)[C@H](O)[C@@H](O)[C@@H]4O)nn3)[C@@H](O)[C@H](O)[C@H]2O)[C@H](O)[C@@H](O)[C@H]1O [diSTGD] | 
